In PubChem BioAssay AID720671 (NMMLSC, 2013):
Active and inactive are the calls of the source. How the calls were made is not given here.

Target: Botulinum neurotoxin type F light chain protease (Clostridium botulinum)
Test: BoNT/F light chain protease inhibitors, dose response, biochemical, multiplex microsphere, Powder Set 03 (AID 720671)
Details: multiplex microsphere protease cleavage assay, BoNT/F LC

SMILES | EC50
Fc1ccc(-c2nc3nc(-c4cccc(F)c4)cn3nc2-c2ccc(F)cc2)cc1 | 5.7 µM
CC(=O)Nc1ccc2nc(-c3ccccc3)c(-c3ccccc3)nc2c1 | > 20 µM (inactive)
O=C(Nc1ccc2nc(-c3ccccc3)c(-c3ccccc3)nc2c1)NC1CCCC1 | > 20 µM (inactive)
CC(C)(C)NC(=O)Nc1ccc2nc(-c3ccccc3)c(-c3ccccc3)nc2c1 | > 20 µM (inactive)
O=C(Nc1ccc2nc(-c3cccs3)c(-c3cccs3)nc2c1)NC1CCCC1 | > 20 µM (inactive)
CCCOC(=O)Nc1ccc2nc(-c3cccs3)c(-c3cccs3)nc2c1 | > 20 µM (inactive)
COc1ccc(-c2nc3nc(-c4cccc(F)c4)cn3nc2-c2ccc(OC)cc2)cc1 | 4.4 µM
CCOC(=O)Nc1ccc2nc(-c3ccccc3)c(-c3ccccc3)nc2c1 | > 20 µM (inactive)
COc1ccc(-c2nc3nc(-c4ccccc4OC)cn3nc2-c2ccc(OC)cc2)cc1 | 5.2 µM
Cc1ccc(-c2nc3nc(-c4ccc(S(C)(=O)=O)cc4)cn3nc2-c2ccc(C)cc2)cc1 | > 20 µM (inactive)
Cc1ccc(-c2nc3nc(-c4ccc(OC(F)(F)F)cc4)cn3nc2-c2ccc(C)cc2)cc1 | > 20 µM (inactive)
CCCOC(=O)Nc1ccc2nc(-c3ccccc3)c(-c3ccccc3)nc2c1 | > 20 µM (inactive)
COc1cccc(-c2cn3nc(-c4ccccc4)c(-c4ccccc4)nc3n2)c1 | > 20 µM (inactive)
COc1ccccc1-c1cn2nc(-c3ccccc3)c(-c3ccccc3)nc2n1 | > 20 µM (inactive)
COc1ccc(-c2cn3nc(-c4ccc(OC)cc4)c(-c4ccc(OC)cc4)nc3n2)cc1 | > 20 µM (inactive)
O=S(=O)(Nc1ccc2nc(-c3ccccc3)c(-c3ccccc3)nc2c1)C1CC1 | > 20 µM (inactive)
CCCCOC(=O)Nc1ccc2nc(-c3cccs3)c(-c3cccs3)nc2c1 | > 20 µM (inactive)
Cc1ccc(-c2nc3nc(-c4ccccc4)cn3nc2-c2ccc(C)cc2)cc1 | 5.4 µM
COc1ccc(-c2nc3nc(-c4ccc(OC(F)(F)F)cc4)cn3nc2-c2ccc(OC)cc2)cc1 | > 20 µM (inactive)
COc1ccc(-c2cn3nc(-c4ccc(F)cc4)c(-c4ccc(F)cc4)nc3n2)cc1 | > 20 µM (inactive)
O=C(Nc1ccc2nc(-c3cccs3)c(-c3cccs3)nc2c1)C1CCCC1 | > 20 µM (inactive)

SMILES | EC50
O=C(Nc1ccc2nc(-c3ccccc3)c(-c3ccccc3)nc2c1)OCc1ccccc1 | > 20 µM (inactive)
CCCS(=O)(=O)Nc1ccc2nc(-c3ccccc3)c(-c3ccccc3)nc2c1 | > 20 µM (inactive)
CCCS(=O)(=O)Nc1ccc2nc(-c3cccs3)c(-c3cccs3)nc2c1 | > 20 µM (inactive)
O=C(Nc1ccc2nc(-c3ccccc3)c(-c3ccccc3)nc2c1)C1CCCCC1 | > 20 µM (inactive)
CCCNC(=O)Nc1ccc2nc(-c3ccccc3)c(-c3ccccc3)nc2c1 | > 20 µM (inactive)
O=C(Nc1ccc2nc(-c3cccs3)c(-c3cccs3)nc2c1)C1CCC1 | > 20 µM (inactive)
COC(=O)Nc1ccc2nc(-c3cccs3)c(-c3cccs3)nc2c1 | > 20 µM (inactive)
Cc1ccc(-c2cn3nc(-c4ccc(F)cc4)c(-c4ccc(F)cc4)nc3n2)cc1 | > 20 µM (inactive)
CCNC(=O)Nc1ccc2nc(-c3cccs3)c(-c3cccs3)nc2c1 | > 20 µM (inactive)
COc1cccc(-c2cn3nc(-c4ccc(C)cc4)c(-c4ccc(C)cc4)nc3n2)c1 | > 20 µM (inactive)
COc1ccc(-c2nc3nc(-c4ccc(OC)cc4OC)cn3nc2-c2ccc(OC)cc2)cc1 | > 20 µM (inactive)
COc1ccc(-c2nc3nc(-c4ccc(C)cc4)cn3nc2-c2ccc(OC)cc2)cc1 | > 20 µM (inactive)
Clc1ccc(-c2cn3nc(-c4ccccc4)c(-c4ccccc4)nc3n2)c(Cl)c1 | > 20 µM (inactive)
O=C(Nc1ccc2nc(-c3ccccc3)c(-c3ccccc3)nc2c1)C1CC1 | > 20 µM (inactive)
COc1ccccc1-c1cn2nc(-c3ccc(F)cc3)c(-c3ccc(F)cc3)nc2n1 | 5.7 µM
O=C(Nc1ccc2nc(-c3cccs3)c(-c3cccs3)nc2c1)C1CC1 | > 20 µM (inactive)
COc1cccc(-c2cn3nc(-c4ccc(F)cc4)c(-c4ccc(F)cc4)nc3n2)c1 | 7.9 µM
Fc1ccc(-c2nc3nc(-c4ccccc4)cn3nc2-c2ccc(F)cc2)cc1 | 8.9 µM
O=C(Nc1ccc2nc(-c3ccccc3)c(-c3ccccc3)nc2c1)C1CCC1 | > 20 µM (inactive)
CC(C)OC(=O)Nc1ccc2nc(-c3ccccc3)c(-c3ccccc3)nc2c1 | > 20 µM (inactive)
Fc1ccc(-c2cn3nc(-c4ccccc4)c(-c4ccccc4)nc3n2)cc1 | > 20 µM (inactive)

SMILES | EC50
COC(=O)Nc1ccc2nc(-c3ccccc3)c(-c3ccccc3)nc2c1 | > 20 µM (inactive)
CCOC(=O)Nc1ccc2nc(-c3cccs3)c(-c3cccs3)nc2c1 | > 20 µM (inactive)
CCS(=O)(=O)Nc1ccc2nc(-c3ccccc3)c(-c3ccccc3)nc2c1 | > 20 µM (inactive)
CC(C)(C)C(=O)Nc1ccc2nc(-c3ccccc3)c(-c3ccccc3)nc2c1 | > 20 µM (inactive)
Fc1ccc(-c2cn3nc(-c4ccc(F)cc4)c(-c4ccc(F)cc4)nc3n2)cc1 | 4 µM
O=C(Nc1ccc2nc(-c3ccccc3)c(-c3ccccc3)nc2c1)C1CCCC1 | > 20 µM (inactive)
COc1ccc(-c2cn3nc(-c4ccc(C)cc4)c(-c4ccc(C)cc4)nc3n2)c(OC)c1 | > 20 µM (inactive)
CC(C)OC(=O)Nc1ccc2nc(-c3cccs3)c(-c3cccs3)nc2c1 | > 20 µM (inactive)
CCC(=O)Nc1ccc2nc(-c3ccccc3)c(-c3ccccc3)nc2c1 | > 20 µM (inactive)
Cc1ccc(-c2cn3nc(-c4ccc(C)cc4)c(-c4ccc(C)cc4)nc3n2)cc1 | > 20 µM (inactive)
CCNC(=S)Nc1ccc2nc(-c3ccccc3)c(-c3ccccc3)nc2c1 | > 20 µM (inactive)
Fc1cccc(-c2cn3nc(-c4ccccc4)c(-c4ccccc4)nc3n2)c1 | 18 µM
N#Cc1ccc(-c2cn3nc(-c4ccccc4)c(-c4ccccc4)nc3n2)cc1 | > 20 µM (inactive)
CS(=O)(=O)c1ccc(-c2cn3nc(-c4ccc(F)cc4)c(-c4ccc(F)cc4)nc3n2)cc1 | > 20 µM (inactive)
COc1ccc(-c2nc3nc(-c4ccc(S(C)(=O)=O)cc4)cn3nc2-c2ccc(OC)cc2)cc1 | > 20 µM (inactive)
COc1ccccc1-c1cn2nc(-c3ccc(C)cc3)c(-c3ccc(C)cc3)nc2n1 | > 20 µM (inactive)
CC(C)NC(=O)Nc1ccc2nc(-c3ccccc3)c(-c3ccccc3)nc2c1 | > 20 µM (inactive)
COc1ccc(-c2nc3nc(-c4ccccc4)cn3nc2-c2ccc(OC)cc2)cc1 | > 20 µM (inactive)
COc1ccc(-c2cn3nc(-c4ccccc4)c(-c4ccccc4)nc3n2)c(OC)c1 | > 20 µM (inactive)
N#Cc1ccc(-c2cn3nc(-c4ccc(F)cc4)c(-c4ccc(F)cc4)nc3n2)cc1 | > 20 µM (inactive)
CS(=O)(=O)c1ccc(-c2cn3nc(-c4ccccc4)c(-c4ccccc4)nc3n2)cc1 | > 20 µM (inactive)

SMILES | EC50
CC(C)CS(=O)(=O)Nc1ccc2nc(-c3cccs3)c(-c3cccs3)nc2c1 | > 20 µM (inactive)
Cc1ccc(-c2nc3nc(-c4cccc(F)c4)cn3nc2-c2ccc(C)cc2)cc1 | > 20 µM (inactive)
Cc1ccc(-c2nc3nc(-c4ccc(F)cc4)cn3nc2-c2ccc(C)cc2)cc1 | > 20 µM (inactive)
COc1ccc(-c2cn3nc(-c4ccc(F)cc4)c(-c4ccc(F)cc4)nc3n2)c(OC)c1 | 1.5 µM
CC(Oc1ccccc1)C(=O)Nc1ccc2nc(-c3ccccc3)c(-c3ccccc3)nc2c1 (configuration not stated) | > 20 µM (inactive)
CCNC(=O)Nc1ccc2nc(-c3ccccc3)c(-c3ccccc3)nc2c1 | > 20 µM (inactive)
Fc1ccc(-c2nc3nc(-c4ccc(OC(F)(F)F)cc4)cn3nc2-c2ccc(F)cc2)cc1 | > 20 µM (inactive)
COc1ccc(-c2nc3nc(-c4ccc(F)cc4)cn3nc2-c2ccc(OC)cc2)cc1 | > 20 µM (inactive)
CCCCOC(=O)Nc1ccc2nc(-c3ccccc3)c(-c3ccccc3)nc2c1 | > 20 µM (inactive)
CCC(=O)Nc1ccc2nc(-c3cccs3)c(-c3cccs3)nc2c1 | > 20 µM (inactive)
O=C(Nc1ccc2nc(-c3cccs3)c(-c3cccs3)nc2c1)OCc1ccccc1 | > 20 µM (inactive)
COc1ccc(-c2nc3nc(-c4ccc(C#N)cc4)cn3nc2-c2ccc(OC)cc2)cc1 | > 20 µM (inactive)
COc1ccc(-c2cn3nc(-c4ccc(C)cc4)c(-c4ccc(C)cc4)nc3n2)cc1 | > 20 µM (inactive)
CC(C)CS(=O)(=O)Nc1ccc2nc(-c3ccccc3)c(-c3ccccc3)nc2c1 | > 20 µM (inactive)
COc1ccc(-c2nc3nc(-c4cccc(OC)c4)cn3nc2-c2ccc(OC)cc2)cc1 | > 20 µM (inactive)
CC(C)NC(=O)Nc1ccc2nc(-c3cccs3)c(-c3cccs3)nc2c1 | > 20 µM (inactive)
Cc1ccc(-c2nc3nc(-c4ccc(C#N)cc4)cn3nc2-c2ccc(C)cc2)cc1 | 11.2 µM
FC(F)(F)Oc1ccc(-c2cn3nc(-c4ccccc4)c(-c4ccccc4)nc3n2)cc1 | > 20 µM (inactive)
O=S(=O)(Nc1ccc2nc(-c3cccs3)c(-c3cccs3)nc2c1)C1CC1 | > 20 µM (inactive)
